US7892764B2, “System for seizure suppression” (priority 2006, dated 2011)

Assays:
[1] = test system: cultured mouse hippocampal neurons; assay: Cell culture model of epilepsy: kynurenic acid (Kyn) withdrawal-induced seizure-like activity, current-clamp recording; assay type: cell-based
From the text: We hypothesized that ASICs are involved in seizure propagation. Using the Furshpan and Potter cell culture model of epilepsy (Meller et al., 2003; Furshpan et al., 1998), we tested ASIC blockade in mouse hippocampal neurons cultured with the glutamate antagonist kynurenate (Kyn) and elevated Mg^2+. In the presence of Kyn, the majority of hippocampal neurons remained quiescent. […] Without amiloride, Kyn withdrawal-induced sustained depolarization of 39.5±2.1 mV and paroxysmal bursts at 4.0±0.5 Hz. With 30 μM amiloride, membrane depolarization was reduced to 28.6±2.7 mV (p<0.05, n=5) and burst activity reduced to 2.5±0.4 Hz (p<0.01, FIGS. 3C and 3D). Similarly, application of PcTX1 reduced membrane depolarization from 30.2±3.7 mV to 10.7±1.8 mV (n=8, p<0.01) and burst activity from 5.5±0.6 Hz to 1.2±0.3 Hz (n=9, p<0.01, FIGS. 3C, 3D, and 4).
Cell culture model of epilepsy. Long term cell culture model of epilepsy was performed as described (Furshpan et al., 1989; Meller et al., 2003). Briefly, hippocampal neurons prepared from 1-2 day-old C57BL/6 mice cultured in Neurobasal-A/B27 media supplemented with 10 mM Kyn and 5 mM MgCl2. Culture media was replenished with fresh kynurenic acid/Mg^2+ every 3 days. Cells were used for patch-clamp recording after 3 to 4 weeks. Following the formation of a tight seal in a whole-cell configuration, neurons were current-clamped at ˜−60 mV. In the presence of Kyn, the majority of hippocampal neurons remained quiescent. […] The spontaneous electrical behavior of the culture has many of the characteristics of seizure activity in an intact cortex. This system allows seizure-related cellular mechanisms to be studied in long-term cell culture.
Patch clamp techniques. Whole-cell voltage-clamp and current-clamp recordings were performed as described in our previous studies (Xiong et al., 2004). Patch electrodes were constructed from thin-welled borosilicate glass (1.5 mm diameter, WPI, Sarasota, Fla., USA) on a two-stage puller (PP83 Narishige, Tokyo). The resistances of patch electrodes were 1.5-3 MΩ when filled with the intracellular solution (see below). Whole-cell currents were recorded using Axopatch 200B amplifiers with pCLAMP software (Axon Instruments, CA, USA). Data were filtered at 2 kHz and digitized at 5 kHz using Digidata 1322 (Axon Instruments). During each experiment, a voltage step of −10 mV was applied periodically to monitor the cell capacitance and the access resistance. A multi-barrel perfusion system (SF-77, Warner Instrument Co., Conn., USA) was employed to achieve a rapid exchange of solutions. All experiments were performed at room temperature (22-24° C.).

ASICs = target: T1, ASICs (Mus musculus, UniProt Q6NXK8); assay: Acid (pH 7.0/7.1)-induced membrane depolarization and neuronal firing, current-clamp recording; assay type: cell-based
T1 construct: Primary neuronal cultures were prepared from embryonic Swiss mice at 15 to 16 days of gestation; endogenous in cells
T1 sequence (Q6NXK8 1-526): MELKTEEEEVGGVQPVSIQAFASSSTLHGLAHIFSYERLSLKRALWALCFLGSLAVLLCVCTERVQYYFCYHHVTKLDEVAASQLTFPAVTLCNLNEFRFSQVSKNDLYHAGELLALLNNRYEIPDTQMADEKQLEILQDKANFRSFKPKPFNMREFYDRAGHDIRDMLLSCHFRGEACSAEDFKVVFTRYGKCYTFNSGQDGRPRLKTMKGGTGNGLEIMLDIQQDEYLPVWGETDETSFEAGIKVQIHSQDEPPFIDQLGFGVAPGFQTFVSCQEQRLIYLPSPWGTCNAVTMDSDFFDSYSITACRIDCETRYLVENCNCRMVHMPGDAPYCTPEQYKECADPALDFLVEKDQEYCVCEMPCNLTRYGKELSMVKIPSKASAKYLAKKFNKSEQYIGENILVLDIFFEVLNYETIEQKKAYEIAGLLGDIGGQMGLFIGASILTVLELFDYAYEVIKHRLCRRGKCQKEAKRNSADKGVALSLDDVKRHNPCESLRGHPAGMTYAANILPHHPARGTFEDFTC
From the text: Unlike ischemia, only moderate pH changes (e.g., ˜0.3 pH unit) are reported in brain parenchyma during seizures (Chesler et al., 1988: Chesler et al., 1992), although pH in the synaptic cleft may be much lower (Chesler et al., 1992; Wemmie et al., 2006). […] One possibility is that voltage-clamp recording has relatively low sensitivity to resolve small current in whole-cell configuration. To provide more evidence that the decreases of pHo to the level seen in epilepsy can indeed activate the ASICs and cause neuronal excitation, we have also used current-clamp recording to study changes of membrane depolarization and neuronal firing by small changes of pHo. Due to the large input resistance of most CNS neurons (e.g., ˜500 MΩ), even a small membrane current (e.g., 10-20 pA, which is difficult to resolve in voltage-clamp recording in general) can induce significant membrane depolarization in current-clamp conditions. Mouse cortical neurons were used for current-clamp recordings 14 days after the culture.
Cortical neuronal culture. Primary neuronal cultures were prepared from embryonic Swiss mice at 15 to 16 days of gestation according to our previously described techniques (Xiong et al., 2004). In brief, cerebral cortices from 10 to 12 embryos were dissected and incubated with 0.05% trypsin-EDTA for 10 min, dissociated by trituration with a fire-polished glass pipette, and plated on poly-L-ornithine-coated culture dishes at a density of 0.5×10^6 cells per dish. Neurons were cultured with Neurobasal medium supplemented with B27 (Invitrogen). The cultures were maintained at 37° C. in a humidified 5% CO2 atmosphere incubator and were used for experiments after 12-14 days.
Patch clamp techniques. Whole-cell voltage-clamp and current-clamp recordings were performed as described in our previous studies (Xiong et al., 2004). […] Whole-cell currents were recorded using Axopatch 200B amplifiers with pCLAMP software (Axon Instruments, CA, USA). […]

[2] = 30 μM amiloride, perfused 2 min before and during Kyn withdrawal
[3] = PcTX1 (venom 200 ng/mL total protein per FIG. 4 legend)

Molecule	Kyn withdrawal-induced paroxysmal burst activity (frequency) [1, 2] [Hz]	Kyn withdrawal-induced sustained membrane depolarization [1, 2] [mV]	effect on acid-induced neuronal excitation (membrane depolarization, firing rate) (ASICs; pH 7.0, amiloride 100 μM or synthetic PcTX1 20 nM)	Kyn withdrawal-induced burst activity (frequency) [1, 3] [Hz]	Kyn withdrawal-induced membrane depolarization [1, 3] [mV]	effect on acid-induced depolarization and firing of action potentials (ASICs; pH 7.1)
NC(N)=NC(=O)c1nc(Cl)c(N)nc1N [amiloride, 3,5-diamino-6-chloro-N(diaminomethylidene)pyrazine-2-carboxamide]	2.5±0.4	28.6±2.7	largely and significantly reduced			
Psalmotoxin 1 [PcTX1]				1.2±0.3	10.7±1.8	sensitive to PcTX1 inhibition
